US12275685B2, “Oligo-benzamide analogs and their use in cancer treatment” (Board of Regents, The University of Texas System, priority 2018, dated 2025)
Entries after “also recorded” stand apart in the source; their conditions may differ. Read-outs that look alike come from different tables or passages of the source.

How the values were obtained:
[1] = test system: MCF-7 expressing mutant D538G; assay: Protein synthesis by puromycin labeling, BC cells; assay type: cell-based; conditions: 16 h
[2] = test system: D538G MT-ERα; assay: ERα ChIP, ERX-315; assay type: cell-based
Description: (§1) FIGS. 66A-D: (FIG. 66A) Effect of ERX-315 on ERa DNA binding on the promoters of 5 canonical ERα-regulated genes with ERa ChIP in MCF-7 expressing D538G MT-ERα in the absence and presence of estradiol.
(§2) Prior studies have shown that MT-ERα drives a canonical ERα transcriptional programme, both in the absence and presence of estradiol. RNA sequencing studies indicate that ERX-315 alters the transcriptional heatmap in MCF-7 and ZR-75 cells expressing D538G and Y537S MT-ERα (FIG. 66B, data shown for MCF-7 cells expressing D538G MT-ERα).

[3] = molecular target: T1, WT ERα LBD (Homo sapiens, UniProt P03372); assay: LanthaScreen TR-FRET ERα coactivator assay; assay type: binding
T1 construct: in the presence of 3.5 nM ER Alpha-LBD (GST); purchased

[4] = test system: cell lines driven by MT-ERα; assay: sXBP1 and CHOP RNA expression; conditions: three cell lines driven by MT-ERα
[5] = test system: human mammary epithelial cells (HMEC); assay: Activity of ERX-315 in HMEC; assay type: cell-based
Description: ERX-315. The binding of ERX-315 (structure shown in FIG. 65C) to ERα has been validated for WT ERα LBD using time-resolved FRET (TR-FRET)-ERα Coactivator assay (FIG. 65D: purified MT-ERα LBD is not available). […] In contrast, ERX-314, which has a methyl group in place of the N-terminal fluoride of ERX-315, is modeled to bind less avidly to MT-ERα LBD (predicted docking energy˜[…]). […] ERX-315 had no activity against benign breast epithelial cells, shown for the human mammary epithelial cells (HMEC). In contrast, ERX-314 has dramatically lower potency (IC50˜1500-5000 nM) and serves an internal control for ERX-315. The inventors have performed most of the studies described below with three compounds-ERX-315 as the optimized lead, ERX-11 as the parental compound and ERX-314 as a negative control.

[6] = test system: HMEC cells; assay: Protein synthesis by puromycin labeling, HMEC; assay type: cell-based, human
[7] = test system: MT-ERα; assay: RNA sequencing of MT-ERα transcriptional programme; assay type: cell-based; conditions: MCF-7 and ZR-75 cells expressing D538G and Y537S MT-ERα
Description: as §1, §2

[8] = test system: MT-ERα (ZR-75 and MCF-7 cells with MT Y537S ERα) driven xenograft models; assay: ERX-315 in MT-ERα BC xenograft models; assay type: in vivo; conditions: for growth of MT-ERα xenografts / mouse liver, uterus, body weight: oral 10 mg/kg; for growth of MT-ERα xenografts: captisol
Method: Following establishment of tumors, mice (n=6/group) were randomized and treated for 5 days/week with either 10 mg/kg/oral of ERX-315 or vehicle.

[9] = test system: BC cells expressing MT-ERα; assay: Uncompensated UPR / LC3B activation; assay type: cell-based
Method: ERX-315 decreases expression of ERα MCF-7 cells with MT-ERα, both the Y537S and D538G mutants (FIG. 67C), around 12-16 h (FIG. 67D). […] In contrast, neither fulvestrant nor GDC-0810 consistently degrade MT-ERa nor induce LC3.

[10] = test system: D538G MT-ERα; assay: ERE reporter assay, ERX-315; assay type: cell-based; conditions: MCF-7 cells expressing D538G MT-ERα
[11] = test system: WT- and MT-ERα-driven cell lines (MCF-7, ZR-75); assay: Anti-proliferative activity in WT- and MT-ERα-driven cell lines; assay type: cell-based
[12] = Pharmacokinetic studies of ERX-315; assay type: in vivo, mice
Method: At 24 h after oral administration, ERX-315 was still detectable in the plasma at >500 ng/mL. […] Thus, the inventors' initial studies indicate that once a day oral dosing of 10 mg/kg ERX-315 in captisol is sufficient to maintain therapeutic drug levels.

[13] = test system: breast cancer cells; assay: Growth inhibition of breast cancer cells; assay type: cell-based; conditions: read-out: IC50, activity against breast cancer cells
Description: In addition, another tris-benzmaide compound TK208 was synthesized and tested against breast cancer and ovarian cancer cell lines (FIGS. 10-15). […] These compounds (e.g., TK41, TK208, TK308 (FIG. 21), TK309 (FIG. 22), TK314, TK315) are extremely potent compounds that inhibit tumor growth and kill breast and ovarian cancer cells and as such, they are superb therapeutic candidates for such diseases.

[14] = test system: MT-ERα; assay: MT-ERα protein levels; assay type: cell-based; conditions: over 12-24 h

T1 sequence (P03372 311-547 limits assumed): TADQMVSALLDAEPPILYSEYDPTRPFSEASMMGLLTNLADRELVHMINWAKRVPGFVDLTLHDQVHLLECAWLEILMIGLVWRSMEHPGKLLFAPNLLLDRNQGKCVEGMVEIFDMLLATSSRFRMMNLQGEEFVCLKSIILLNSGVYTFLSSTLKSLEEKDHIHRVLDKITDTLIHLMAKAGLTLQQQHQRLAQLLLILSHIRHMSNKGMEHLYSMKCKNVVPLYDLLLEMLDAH

CC(C)COc1cc(C(=O)Nc2ccc(C(=O)N[C@H]3CC[C@H](C(=O)Nc4cnc5ccccc5c4)CC3)cc2OCC(C)C)ccc1NC(=O)c1ccc(F)c(OCCO)c1 [TK315]
shutdown of protein synthesis in BC cells [1]: Global shutdown of protein synthesis | MT-ERα binding to promoters of ERα-regulated genes [2]: dramatically decreases MT-ERα binding | binding to WT ERα LBD [3]: validated | expression of sXBP1 and CHOP at the RNA level [4]: significantly enhance | activity against benign breast epithelial cells [5]: no activity | shutdown of protein synthesis in HMEC [6]: no significant shutdown of protein synthesis | MT-ERα transcriptional programme [7]: efficiently blocks the transcriptional programme | Ki67 proliferation indices in tumors ([8]; mouse, in vivo): dramatically decreased Ki67 proliferation indices | growth of MT-ERα xenografts ([8]; 10 mg/kg): potent activity; also recorded: decreased the growth and tumor weight | growth of MT-ERα xenografts ([8]; listed as ERX-315, 10 mg/kg): decreased the growth; also recorded: potent activity | mouse liver, uterus, body weight ([8]; 10 mg/kg): no effect on mouse liver or body weight; also recorded: No change in body weight | mouse liver, uterus, body weight ([8]; listed as ERX-315, 10 mg/kg): no change in body weight; also recorded: no effect on mouse liver, uterus height or body weight | immunogenicity ([8]; syngeneic D2A1 tumors, spleen, lymph nodes, kidney, liver): not immunogenic | uncompensated UPR leading to LC3B activation and cell death [9]: induced uncompensated UPR | ERE-driven transcription [10]: attenuate transcription | IC50 [11]: 15 to 35 nM | oral bioavailability ([12]; captisol formulation): orally bioavailable | concentration at 0.5 h ([12]; mouse, blood, 0.5 hr, single oral 10 mg/kg in captisol): 3440 ± 2320 ng/mL | concentration at 1 h ([12]; mouse, blood, 1 hr, single oral 10 mg/kg in captisol): 2400 ± 1460 ng/mL | concentration at 2 h ([12]; mouse, blood, 2 hr, single oral 10 mg/kg in captisol, read-out: Blood): 1840 ± 1290 ng/mL | concentration at 4 h ([12]; mouse, blood, 4 hr, single oral 10 mg/kg in captisol, read-out: Blood): 16000 ± 394 ng/mL | concentration at 8 h ([12]; mouse, blood, 8 hr, single oral 10 mg/kg in captisol, read-out: Blood): 823 ± 123 ng/mL | concentration at 16 h ([12]; mouse, blood, 16 hr, single oral 10 mg/kg in captisol, read-out: Blood): 427 ± 197 ng/mL | concentration at 24 h ([12]; mouse, plasma, 10 mg/kg, 24 h after oral administration, read-out: plasma level): > 500 ng/mL | half-life ([12]; mouse, plasma, 10 mg/kg, oral, captisol): ~4.5 h | concentration at 2 h ([12]; mouse, tumor, 10 mg/kg, 2 hr after last dose, MCF7 xenograft, oral 5 days/week for 10 days, read-out: Tumor): 1430 ± 631 ng/mL | concentration at 4 h ([12]; mouse, tumor, 10 mg/kg, 4 hr after last dose, MCF7 xenograft, oral 5 days/week for 10 days, read-out: Tumor): 1010 ± 850 ng/mL | concentration at 8 h ([12]; mouse, tumor, 10 mg/kg, 8 hr after last dose, MCF7 xenograft, oral 5 days/week for 10 days, read-out: Tumor): 609 ± 404 ng/mL | concentration at 16 h ([12]; mouse, tumor, 10 mg/kg, 16 hr after last dose, MCF7 xenograft, oral 5 days/week for 10 days, read-out: Tumor): 187 ± 238 ng/mL | concentration at 16 h ([12]; mouse, tumor, oral, 10 mg/kg, 16 h after the last dose, read-out: corresponding tumor concentration): > 100 nM | concentration at 16 h ([12]; mouse, tumor, MCF-7 xenograft, 2 weeks daily oral 10 mg/kg, 16 h after the last dose, read-out: tumor tissue level): > 100 ng/g | toxicity at 10 mg/kg ([12]; once a day oral 10 mg/kg): no significant toxicity | IC50 [13]: 10 to 50 nM | protein levels of mutant ERα [14]: < 10 % basal
